Experimental findings from US11358977B2, “Deuterated pyridone amides and prodrugs thereof as modulators of sodium channels” (VERTEX PHARMACEUTICALS INCORPORATED, priority 2017, dated 2022) are described below.

The nature of this data set: In vivo pharmacokinetic study, rat IV. Set-up: species or system Male Sprague Dawley rats. Here is the method: General Procedures. Concentrations of the test compounds in plasma were determined using a high performance liquid chromatography/tandem mass spectrometry (HPLC/MS/MS) method. The test compounds along with the internal standard (IS) were extracted from plasma (20 μL) by direct protein precipitation with acetonitrile (1:25 ratio of plasma/acetonitrile). After centrifugation, the supernatant extract (10 μL) was injected onto the LC/MS/MS system. The HPLC system included a Phenomenex Luna C8 column, 3 micron, 2 mm diameter×30 mm long eluted with a gradient mobile phase consisting of 0.1% formic acid in water or in acetonitrile. The analytes were detected by MS/MS with Electrospray Ionization (ESI) in the mode of multiple reaction monitoring (MRM). The lower limit of quantitation (LLOQ) was 1.00 ng/mL. The linear range of the assay was from 1 to 3000 ng/mL. The assay accuracy was within 20% of the nominal values.
Plasma concentration-time profiles of the test compounds were analyzed by noncompartmental pharmacokinetic methods using PK module in Watson, Version 7.4.2 (Thermo Scientific). Pharmacokinetic parameters including AUCa11, AUC0-∞, C0, Cl, Vss and t1/2 were determined.
Descriptive statistical data of plasma concentrations and pharmacokinetic parameter estimates were calculated, including the mean, standard deviation (SD), and coefficient of variation (% CV) using Microsoft Excel 2010.
Rat IV Study. Compounds 7 and 10 were administered simultaneously in a single intravenous bolus to Male Sprague Dawley rats (n=3) via jugular cannula. The nominal dose of each compound was 0.5 mg/kg. The cassette dosing solution was formulated in D5W with additives Animals had free access to food and water before and after dosing. Blood samples (approximately 0.25 mL each) were collected via a carotid artery catheter prior to dosing and at 0 (predose), 5 min, 10 min, 0.25, 0.5, 1, 2, 4, 8, 12, 24 hours post dose. Each blood sample was collected into a tube that was kept on wet ice and contained potassium EDTA as the anticoagulant. Plasma was separated and stored at approximately −70° C. until analysis.
Plasma samples and dosing solutions were analyzed using a liquid chromatography/tandem mass spectrometry (LC/MS/MS) method to determine the concentrations of Compounds 7 and 10 with a lower limit of quantitation (LLOQ) of 1.00 ng/mL. The average plasma concentrations of Compounds 7 and 10 are plotted in FIG. 5 and are also presented in tabular form in Table 5.
Plasma concentration vs. time data were subjected to noncompartmental pharmacokinetic (PK) analysis. To determined the measured dose of each compound, the dose formulation (50 μL) was aliquoted into a cluster tube at the time of dosing. Then 450 μL of DMSO was added to the tube to dilute it 10×. Then the diluted dosing solution was spiked into rat blank plasma with 100× dilution. The resulting plasma sample was analyzed along with the plasma samples collected from rats that were dosed with the compounds, using the same LC/MS/MS method.

The mark [1] stands for this setting: male, Sprague Dawley, plasma, rat IV bolus, cassette, nominal 0.5 mg/kg, noncompartmental analysis.

In general, AUC refers to the area under the concentration-time curve, a measure of exposure. Higher therefore signals more exposure. In general, AUC(0-inf) refers to total exposure, with the tail of the curve extrapolated. A lower AUC(0-inf) goes with less exposure. Usually clearance stands for a measure of how efficiently the substance is removed, as volume per time. A low value points to a low capacity for elimination. Usually half-life stands for the time in which the quantity being followed falls by half. Lower therefore signals fast loss. As to `[2H]C([2H])([2H])c1cc(F)ccc1Oc1cc(C(F)(F)F)ccc1C(=O)Nc1cc[nH]c(=O)c1` [Compound 7, 2-(4-fluoro-2-(methyl-d3)phenoxy)-N-(2-oxo-1,2-dihydropyridin-4-yl)-4-(trifluoromethyl)benzamide], for the setting “in rats, IV”, the “clearance compared with Compound 10” value is recorded as “lower” and the “t1/2 compared with Compound 10” value is “longer”. Under “male, Sprague Dawley, plasma, rat IV bolus, cassette, nominal 0.5 mg/kg, 0.083 hours”, this compound displayed a concentration at 0.083 h of 420 ng/mL. Also, the concentration at 0.167 h (male, Sprague Dawley, plasma, rat IV bolus, cassette, nominal 0.5 mg/kg, 0.167 hours) stood at 399 ng/mL. Where the note is “male, Sprague Dawley, plasma, rat IV bolus, cassette, nominal 0.5 mg/kg, 0.25 hours”, the concentration at 0.25 h was determined as 371 ng/mL. This compound returned a concentration at 0.5 h (male, Sprague Dawley, plasma, rat IV bolus, cassette, nominal 0.5 mg/kg, 0.5 hours) of 301 ng/mL. For the same compound, the concentration at 1 h (male, Sprague Dawley, plasma, rat IV bolus, cassette, nominal 0.5 mg/kg, 1 hour) was found to be 256 ng/mL. For the same compound, for the setting “male, Sprague Dawley, plasma, rat IV bolus, cassette, nominal 0.5 mg/kg, 2 hours”, the concentration at 2 h is 208 ng/mL. This compound also showed a concentration at 4 h (male, Sprague Dawley, plasma, rat IV bolus, cassette, nominal 0.5 mg/kg, 4 hours) of 154 ng/mL. Where the note is “male, Sprague Dawley, plasma, rat IV bolus, cassette, nominal 0.5 mg/kg, 8 hours”, the concentration at 8 h amounted to 91.3 ng/mL. Moreover, the concentration at 12 h (male, Sprague Dawley, plasma, rat IV bolus, cassette, nominal 0.5 mg/kg, 12 hours) amounted to 47.6 ng/mL. The concentration at 24 h (male, Sprague Dawley, plasma, rat IV bolus, cassette, nominal 0.5 mg/kg, 24 hours) was found to be 7.57 ng/mL. Under setting [1], this compound registered an AUC of 937 ng·h/mL, an AUC(0-inf) of 961 ng·h/mL, a C0 of 211 ng/mL and a clearance of 8.07 mL/min/kg. Under setting [1], the half-life was 4.4 h. The Vd (male, Sprague Dawley, plasma, rat IV bolus, cassette, nominal 0.5 mg/kg, noncompartmental analysis, read-out: Vss) stood at 3 L/kg.
